How the values were obtained:
Type in all cases: biochemical
JAK1 = target: T1, JAK1 (Homo sapiens, UniProt P23458); assay: JAK1 enzyme inhibition test (LANCE method); conditions: 1 μM test compound; for inhibition at 1 µM: read-out: JAK1 enzyme inhibitory activity (%, 1 μM)
T1 construct: purchased Invitrogen
Procedure, shortened: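 TR-FRET (LANCE) with ULight-JAK1 peptide (300 nM working solution) and ATP (150 μM working solution) in HEPES pH 7.5, MgCl2, EGTA, DTT buffer; 1 h at room temperature. EDTA stop plus Eu-anti-phosphotyrosine antibody, 665 nm read after 1 h. Inhibition relative to enzyme-free wells as 100%.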

TYK2 = target: T2, TYK2 (Homo sapiens, UniProt P29597); assay: TYK2 enzyme inhibition test (LANCE method); conditions: 1 μM test compound; for inhibition at 1 µM: read-out: TYK2 enzyme inhibitory activity (%, 1 μM)
T2 construct: purchased Invitrogen
T2 sequence (P29597 whole entry): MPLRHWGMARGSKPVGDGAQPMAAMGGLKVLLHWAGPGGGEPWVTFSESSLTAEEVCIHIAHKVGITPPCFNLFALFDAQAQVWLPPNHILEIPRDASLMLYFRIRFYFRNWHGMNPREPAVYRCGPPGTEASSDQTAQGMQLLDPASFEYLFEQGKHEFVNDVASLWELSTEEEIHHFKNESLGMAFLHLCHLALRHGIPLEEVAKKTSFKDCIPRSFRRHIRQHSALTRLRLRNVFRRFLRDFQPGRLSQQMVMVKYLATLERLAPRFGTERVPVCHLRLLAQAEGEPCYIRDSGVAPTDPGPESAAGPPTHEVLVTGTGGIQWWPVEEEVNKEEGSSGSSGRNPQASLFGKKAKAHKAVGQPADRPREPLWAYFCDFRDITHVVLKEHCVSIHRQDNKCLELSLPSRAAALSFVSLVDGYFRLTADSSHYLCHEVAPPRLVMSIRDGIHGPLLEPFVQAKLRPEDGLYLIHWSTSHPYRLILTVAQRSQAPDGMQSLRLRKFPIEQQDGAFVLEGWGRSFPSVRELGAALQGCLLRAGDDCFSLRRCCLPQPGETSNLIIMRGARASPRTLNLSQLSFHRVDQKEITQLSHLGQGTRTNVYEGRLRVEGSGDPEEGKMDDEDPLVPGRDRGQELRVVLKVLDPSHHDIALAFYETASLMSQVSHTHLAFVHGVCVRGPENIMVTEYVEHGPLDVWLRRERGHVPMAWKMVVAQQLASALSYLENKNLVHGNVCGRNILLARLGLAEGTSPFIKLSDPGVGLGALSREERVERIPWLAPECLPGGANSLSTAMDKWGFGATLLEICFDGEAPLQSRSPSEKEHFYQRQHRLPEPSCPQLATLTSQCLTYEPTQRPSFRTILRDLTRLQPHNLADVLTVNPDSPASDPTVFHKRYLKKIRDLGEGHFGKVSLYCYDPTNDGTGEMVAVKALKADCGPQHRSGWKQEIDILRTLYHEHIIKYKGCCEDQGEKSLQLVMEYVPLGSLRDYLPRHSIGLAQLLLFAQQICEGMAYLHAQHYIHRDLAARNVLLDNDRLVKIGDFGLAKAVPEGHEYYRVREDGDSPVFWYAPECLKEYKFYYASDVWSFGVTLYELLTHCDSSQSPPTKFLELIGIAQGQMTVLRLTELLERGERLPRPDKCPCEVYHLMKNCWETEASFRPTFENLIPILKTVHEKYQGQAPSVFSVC
Procedure, shortened: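 Recombinant TYK2 (375 ng/mL working solution) with ULight-JAK1 peptide (300 nM working solution) and ATP (30 μM working solution) in HEPES pH 7.5 buffer with MgCl2, EGTA, DTT, Tween20, BSA, reacted 1 h at RT. EDTA-stopped, Eu-anti-phosphotyrosine TR-FRET read at 665 nm; inhibition relative to enzyme-free wells as 100%.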

JAK2 = target: T3, JAK2 (Homo sapiens, UniProt O60674); assay: JAK2 enzyme inhibition test (LANCE method); conditions: 1 μM test compound; for inhibition at 1 µM: read-out: JAK2 enzyme inhibitory activity (%, 1 μM)
T3 construct: purchased Invitrogen
T3 sequence (O60674 whole entry): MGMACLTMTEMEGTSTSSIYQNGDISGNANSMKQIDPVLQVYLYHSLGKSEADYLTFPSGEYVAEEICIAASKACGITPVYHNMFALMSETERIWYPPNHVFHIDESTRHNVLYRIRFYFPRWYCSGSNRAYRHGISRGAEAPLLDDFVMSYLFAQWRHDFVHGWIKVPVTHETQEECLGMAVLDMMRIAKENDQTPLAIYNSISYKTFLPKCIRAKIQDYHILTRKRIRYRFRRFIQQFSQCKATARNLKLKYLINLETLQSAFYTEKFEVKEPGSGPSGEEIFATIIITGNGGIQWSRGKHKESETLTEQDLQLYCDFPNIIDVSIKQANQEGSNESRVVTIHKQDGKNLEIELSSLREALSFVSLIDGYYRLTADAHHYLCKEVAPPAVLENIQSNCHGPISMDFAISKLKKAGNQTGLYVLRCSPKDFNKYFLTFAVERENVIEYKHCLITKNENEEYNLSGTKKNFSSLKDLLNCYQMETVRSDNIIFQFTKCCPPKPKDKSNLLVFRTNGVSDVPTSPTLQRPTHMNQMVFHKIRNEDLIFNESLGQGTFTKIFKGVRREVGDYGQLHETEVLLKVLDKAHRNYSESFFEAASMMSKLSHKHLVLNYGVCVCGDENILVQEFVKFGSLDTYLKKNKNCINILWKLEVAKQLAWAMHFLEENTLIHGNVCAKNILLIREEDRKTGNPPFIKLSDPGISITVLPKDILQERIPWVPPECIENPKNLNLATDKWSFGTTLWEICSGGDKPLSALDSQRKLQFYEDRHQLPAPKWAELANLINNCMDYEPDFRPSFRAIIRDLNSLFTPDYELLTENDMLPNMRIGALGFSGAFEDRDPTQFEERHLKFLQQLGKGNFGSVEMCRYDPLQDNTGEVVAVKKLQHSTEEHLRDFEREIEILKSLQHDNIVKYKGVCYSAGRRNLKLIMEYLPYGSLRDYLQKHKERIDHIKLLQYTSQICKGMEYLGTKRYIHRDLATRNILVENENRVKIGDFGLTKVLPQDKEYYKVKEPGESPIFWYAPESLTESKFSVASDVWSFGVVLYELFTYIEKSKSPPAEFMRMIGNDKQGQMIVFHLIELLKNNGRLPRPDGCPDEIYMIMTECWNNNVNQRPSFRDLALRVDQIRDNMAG
Procedure, shortened: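 Recombinant JAK2 (6 ng/mL solution) phosphorylated ULight-JAK1 peptide (300 nM solution) with ATP (45 μM solution) in pH 7.5 HEPES/MgCl2/DTT buffer for 1 hr at room temperature. After EDTA stop and europium anti-phosphotyrosine antibody for 1 hr, TR-FRET read at 665 nm; inhibition relative to enzyme-free wells as 100%.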

JAK3 = target: T4, JAK3 (Homo sapiens, UniProt P52333); assay: JAK3 enzyme inhibition test (LANCE method); conditions: 1 μM test compound; for inhibition at 1 µM: read-out: JAK3 enzyme inhibitory activity (%, 1 μM)
T4 construct: purchased Invitrogen
T4 sequence (P52333 1-1124): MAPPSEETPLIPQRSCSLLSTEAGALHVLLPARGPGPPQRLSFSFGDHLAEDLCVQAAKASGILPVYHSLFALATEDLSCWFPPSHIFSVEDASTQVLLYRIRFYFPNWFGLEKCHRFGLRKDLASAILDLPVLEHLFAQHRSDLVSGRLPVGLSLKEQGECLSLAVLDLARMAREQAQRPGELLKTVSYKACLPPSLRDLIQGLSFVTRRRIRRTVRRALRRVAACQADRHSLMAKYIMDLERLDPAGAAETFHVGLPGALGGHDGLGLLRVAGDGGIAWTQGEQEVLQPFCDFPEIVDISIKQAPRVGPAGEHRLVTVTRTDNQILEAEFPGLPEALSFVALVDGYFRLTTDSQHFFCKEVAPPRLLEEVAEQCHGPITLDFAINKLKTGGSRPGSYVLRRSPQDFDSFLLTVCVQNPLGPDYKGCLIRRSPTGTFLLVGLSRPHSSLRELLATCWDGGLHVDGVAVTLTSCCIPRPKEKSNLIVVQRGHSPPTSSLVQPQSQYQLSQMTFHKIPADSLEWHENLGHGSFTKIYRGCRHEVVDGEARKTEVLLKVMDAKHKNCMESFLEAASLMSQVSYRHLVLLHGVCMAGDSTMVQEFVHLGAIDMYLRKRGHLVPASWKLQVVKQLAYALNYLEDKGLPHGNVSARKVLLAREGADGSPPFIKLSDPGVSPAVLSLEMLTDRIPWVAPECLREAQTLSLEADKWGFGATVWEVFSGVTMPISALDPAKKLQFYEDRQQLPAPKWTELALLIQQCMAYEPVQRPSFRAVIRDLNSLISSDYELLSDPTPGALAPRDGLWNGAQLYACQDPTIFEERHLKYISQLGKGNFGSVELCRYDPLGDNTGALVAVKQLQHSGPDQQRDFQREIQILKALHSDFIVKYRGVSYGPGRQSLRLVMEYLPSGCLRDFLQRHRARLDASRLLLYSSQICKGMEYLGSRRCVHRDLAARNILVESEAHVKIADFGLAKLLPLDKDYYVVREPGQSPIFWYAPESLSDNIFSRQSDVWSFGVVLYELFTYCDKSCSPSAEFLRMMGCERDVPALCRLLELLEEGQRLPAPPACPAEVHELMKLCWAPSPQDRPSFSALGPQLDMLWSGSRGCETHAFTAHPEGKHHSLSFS
Procedure, shortened: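 Recombinant JAK3 (12 ng/mL solution) with ULight-JAK1 peptide (300 nM solution) and ATP (15 μM solution) in HEPES pH 7.5 buffer, 1 h at room temperature. EDTA stop with Eu-anti-phosphotyrosine antibody; TR-FRET at 665 nm. Inhibition relative to enzyme-free wells as 100%.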

T1 sequence (P23458 whole entry): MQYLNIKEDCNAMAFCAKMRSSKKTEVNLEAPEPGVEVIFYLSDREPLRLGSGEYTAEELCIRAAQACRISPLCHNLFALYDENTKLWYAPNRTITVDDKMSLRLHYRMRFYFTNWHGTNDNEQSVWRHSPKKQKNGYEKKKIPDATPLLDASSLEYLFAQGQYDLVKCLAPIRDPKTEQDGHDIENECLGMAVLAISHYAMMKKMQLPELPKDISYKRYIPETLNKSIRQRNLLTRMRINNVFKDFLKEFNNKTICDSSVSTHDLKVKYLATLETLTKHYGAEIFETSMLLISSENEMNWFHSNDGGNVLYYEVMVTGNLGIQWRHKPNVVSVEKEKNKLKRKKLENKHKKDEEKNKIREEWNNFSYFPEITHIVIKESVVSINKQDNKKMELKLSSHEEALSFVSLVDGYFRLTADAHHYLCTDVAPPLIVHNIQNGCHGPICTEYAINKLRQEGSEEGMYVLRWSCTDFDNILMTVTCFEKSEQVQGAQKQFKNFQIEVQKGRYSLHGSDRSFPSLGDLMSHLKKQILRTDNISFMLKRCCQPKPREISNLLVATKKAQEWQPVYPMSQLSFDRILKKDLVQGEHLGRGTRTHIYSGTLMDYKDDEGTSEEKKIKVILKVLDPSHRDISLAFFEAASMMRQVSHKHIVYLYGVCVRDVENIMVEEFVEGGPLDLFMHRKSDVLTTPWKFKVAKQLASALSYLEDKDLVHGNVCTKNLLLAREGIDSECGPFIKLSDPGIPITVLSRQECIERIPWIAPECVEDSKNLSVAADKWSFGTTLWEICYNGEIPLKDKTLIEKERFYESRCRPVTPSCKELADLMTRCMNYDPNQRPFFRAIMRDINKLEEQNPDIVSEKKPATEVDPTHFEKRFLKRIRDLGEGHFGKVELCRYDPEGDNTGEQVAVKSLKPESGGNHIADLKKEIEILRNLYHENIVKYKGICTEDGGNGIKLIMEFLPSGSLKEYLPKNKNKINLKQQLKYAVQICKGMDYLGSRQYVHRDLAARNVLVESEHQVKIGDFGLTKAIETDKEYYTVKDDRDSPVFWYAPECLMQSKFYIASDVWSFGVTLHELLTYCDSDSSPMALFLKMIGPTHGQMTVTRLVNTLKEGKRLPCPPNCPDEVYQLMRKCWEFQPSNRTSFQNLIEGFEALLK

| SMILES | inhibition at 1 µM (JAK1) [%] | inhibition at 1 µM (TYK2) [%] | inhibition at 1 µM (JAK2) [%] | inhibition at 1 µM (JAK3) [%] | JAK1 enzyme inhibitory activity (%, 1 μM) (JAK1) [%] | JAK3 enzyme inhibitory activity (%, 1 μM) (JAK3) [%] | TYK2 enzyme inhibitory activity (%, 1 μM) (TYK2) [%] | JAK2 enzyme inhibitory activity (%, 1 μM) (JAK2) [%] |
| --- | --- | --- | --- | --- | --- | --- | --- | --- |
| COC1(c2cc(-c3cn(-c4c(F)cccc4F)c(=O)c4c(N)n[nH]c34)nn2C)CN(S(C)(=O)=O)C1 [Example 132, 3-amino-5-(2,6-difluorophenyl)-7-(5-(3-methoxy-1-(methylsulfonyl)azetidin-3-yl)-1-methyl-1H-pyrazol-3-yl)-1,5-dihydro-4H-pyrazolo[4,3-c]pyridin-4-one] | 94 | 100 | 98 | 99 | – | – | – | – |
| C[C@H](C1CC1)n1cc(-c2cc(N3CCC(C)(O)CC3)n(C)n2)c2[nH]nc(N)c2c1=O [Example 133, 3-amino-5-((1R)-1-cyclopropylethyl)-7-(5-(4-hydroxy-4-methylpiperidin-1-yl)-1-methyl-1H-pyrazol-3-yl)-1,5-dihydro-4H-pyrazolo[4,3-c]pyridin-4-one] | 91 | 99 | 87 | 96 | – | – | – | – |
| CC(C)[C@H](C)n1cc(-c2cc(N(C)C3CCCC3)n(C)n2)c2[nH]nc(N)c2c1=O [Example 134, 3-amino-7-(5-(cyclopentyl(methyl)amino)-1-methyl-1H-pyrazol-3-yl)-5-((2S)-3-methylbutan-2-yl)-1,5-dihydro-4H-pyrazolo[4,3-c]pyridin-4-one] | 97 | 99 | 98 | 99 | – | – | – | – |
| COC[C@H]1CCCN1c1cc(-c2cn([C@@H](C)C(C)C)c(=O)c3c(N)n[nH]c23)nn1C [Example 135, 3-amino-7-(5-((2R)-2-(methoxymethyl)pyrrolidin-1-yl)-1-methyl-1H-pyrazol-3-yl)-5-((2S)-3-methylbutan-2-yl)-1,5-dihydro-4H-pyrazolo[4,3-c]pyridin-4-one] | 96 | 100 | 98 | 99 | – | – | – | – |
| COC1(c2cc(-c3cn([C@@H](C)C(C)C)c(=O)c4c(N)n[nH]c34)nn2C)CN(S(=O)(=O)C(C)C)C1 [Example 136, 3-amino-7-(5-(1-(isopropylsulfonyl)-3-methoxyazetidin-3-yl)-1-methyl-1H-pyrazol-3-yl)-5-((2S)-3-methylbutan-2-yl)-1,5-dihydro-4H-pyrazolo[4,3-c]pyridin-4-one] | 80 | 100 | 98 | 98 | – | – | – | – |
| COC1(c2cc(-c3cn(C(C#N)C(C)C)c(=O)c4c(N)n[nH]c34)nn2C)CCC(F)(F)CC1 (stereo not drawn) [Example 137, 2-(3-amino-7-(5-(4,4-difluoro-1-methoxycyclohexyl)-1-methyl-1H-pyrazol-3-yl)-4-oxo-1,4-dihydro-5H-pyrazolo[4,3-c]pyridin-5-yl)-3-methylbutanenitrile] | – | 99 | 99 | – | 92 | 98 | – | – |
| COC1(c2cc(-c3cn(C(C#N)C(C)C)c(=O)c4c(N)n[nH]c34)nn2C)CCC(F)(F)CC1 (stereo not drawn) [Example 138, 2-(3-amino-7-(5-(4,4-difluoro-1-methoxycyclohexyl)-1-methyl-1H-pyrazol-3-yl)-4-oxo-1,4-dihydro-5H-pyrazolo[4,3-c]pyridin-5-yl)-3-methylbutanenitrile] | – | – | – | – | 96 | 99 | 99 | 99 |
| COC1(c2cc(-c3cn(C(C#N)C(C)C)c(=O)c4c(N)n[nH]c34)nn2C)CCC(F)(F)CC1 (stereo not drawn) [Example 139, 2-(3-amino-7-(5-(4,4-difluoro-1-methoxycyclohexyl)-1-methyl-1H-pyrazol-3-yl)-4-oxo-1,4-dihydro-5H-pyrazolo[4,3-c]pyridin-5-yl)-3-methylbutanenitrile] | – | – | – | – | 32 | 66 | 93 | 80 |
| CN(C)[C@H]1CCN(c2cc(-c3cn(-c4c(F)cccc4F)c(=O)c4c(N)n[nH]c34)nn2C)C1 [Example 140, 3-amino-5-(2,6-difluorophenyl)-7-(5-((3S)-3-(dimethylamino)pyrrolidin-1-yl)-1-methyl-1H-pyrazol-3-yl)-1,5-dihydro-4H-pyrazolo[4,3-c]pyridin-4-one] | 98 | 99 | 99 | 100 | – | – | – | – |
| Cn1nc(-c2cn(-c3c(F)cccc3F)c(=O)c3c(N)n[nH]c23)cc1N1CCC(C#N)CC1 [Example 141, 1-(3-(3-amino-5-(2,6-difluorophenyl)-4-oxo-4,5-dihydro-1H-pyrazolo[4,3-c]pyridin-7-yl)-1-methyl-1H-pyrazol-5-yl)piperidine-4-carbonitrile] | 98 | 100 | 99 | 100 | – | – | – | – |
| Cn1nc(-c2cn(-c3c(F)cccc3F)c(=O)c3c(N)n[nH]c23)cc1N1CCC[C@@H]1CC#N [Example 142, ((2R)-1-(3-(3-amino-5-(2,6-difluorophenyl)-4-oxo-4,5-dihydro-1H-pyrazolo[4,3-c]pyridin-7-yl)-1-methyl-1H-pyrazol-5-yl)pyrrolidin-2-yl)acetonitrile] | 98 | 98 | 98 | 99 | – | – | – | – |
| Cn1nc(-c2cn(-c3c(F)cccc3F)c(=O)c3c(N)n[nH]c23)cc1N1CCOCC1 [Example 143, 3-amino-5-(2,6-difluorophenyl)-7-(1-methyl-5-(morpholin-4-yl)-1H-pyrazol-3-yl)-1,5-dihydro-4H-pyrazolo[4,3-c]pyridin-4-one] | 99 | 100 | 98 | 99 | – | – | – | – |
| COC1(c2cc(-c3cn(-c4c(F)cccc4F)c(=O)c4c(N)n[nH]c34)nn2C)CN(S(=O)(=O)C(C)C)C1 [Example 144, 3-amino-5-(2,6-difluorophenyl)-7-(5-(1-(isopropylsulfonyl)-3-methoxyazetidin-3-yl)-1-methyl-1H-pyrazol-3-yl)-1,5-dihydro-4H-pyrazolo[4,3-c]pyridin-4-one] | 92 | 100 | 98 | 99 | – | – | – | – |
| CN(C)C[C@H]1CCCN1c1cc(-c2cn(C(C3CC3)C3CC3)c(=O)c3c(N)n[nH]c23)nn1C [Example 145, 3-amino-5-(dicyclopropylmethyl)-7-(5-((2R)-2-((dimethylamino)methyl)pyrrolidin-1-yl)-1-methyl-1H-pyrazol-3-yl)-1,5-dihydro-4H-pyrazolo[4,3-c]pyridin-4-one] | 89 | 100 | 98 | 99 | – | – | – | – |
| Cn1nc(-c2cn(C(C3CC3)C3CC3)c(=O)c3c(N)n[nH]c23)cc1C1=CCCCC1 [Example 147, 3-amino-7-(5-(cyclohex-1-en-1-yl)-1-methyl-1H-pyrazol-3-yl)-5-(dicyclopropylmethyl)-1,5-dihydro-4H-pyrazolo[4,3-c]pyridin-4-one] | 101 | 110 | 101 | 103 | – | – | – | – |

Source: patent US9637483B2, “Heterocyclic compound” (TAKEDA PHARMACEUTICAL COMPANY LIMITED, priority 2013, dated 2017)
